Laboratory results from the NIST ThermoML archive (doi:10.1021/je0499768).

Assay: molar heat capacity at constant pressure
Conditions: 101.33 kPa

CCCO [propan-1-ol]
Conditions | molar heat capacity at constant pressure [J/K/mol]
5.01 K, Crystal | 0.17
5.41 K, Crystal | 0.22
6.14 K, Crystal | 0.29
6.36 K, Crystal | 0.35
7.33 K, Crystal | 0.52
7.72 K, Crystal | 0.61
8.72 K, Crystal | 0.9
8.94 K, Crystal | 0.94
10.13 K, Crystal | 1.44
10.33 K, Crystal | 1.49
11.74 K, Crystal | 2.19
11.83 K, Crystal | 2.23
13.48 K, Crystal | 3.15
13.5 K, Crystal | 3.19
15.36 K, Crystal | 4.38
15.38 K, Crystal | 4.4
17.37 K, Crystal | 5.81
17.42 K, Crystal | 5.83
19.52 K, Crystal | 7.46
19.6 K, Crystal | 7.53
21.78 K, Crystal | 9.32
21.9 K, Crystal | 9.44
24.15 K, Crystal | 11.43
24.29 K, Crystal | 11.57
26.63 K, Crystal | 13.58
26.79 K, Crystal | 13.71
29.24 K, Crystal | 15.59
29.43 K, Crystal | 15.75
32.1 K, Crystal | 18.09
34.44 K, Crystal | 20.16
36.72 K, Crystal | 21.88
39.11 K, Crystal | 23.5
41.56 K, Crystal | 25.36
44.03 K, Crystal | 27.19
46.52 K, Crystal | 28.98
49.05 K, Crystal | 30.75
51.61 K, Crystal | 32.44
54.2 K, Crystal | 34.01
56.81 K, Crystal | 35.59
59.46 K, Crystal | 37.12
62.13 K, Crystal | 38.64
64.82 K, Crystal | 40.12
67.54 K, Crystal | 41.54
70.28 K, Crystal | 42.95
73.03 K, Crystal | 44.31
75.8 K, Crystal | 45.65
78.58 K, Crystal | 46.95
81.38 K, Crystal | 48.22
84.17 K, Crystal | 49.46
86.9 K, Crystal | 50.65
89.55 K, Crystal | 51.79
92.15 K, Crystal | 52.87
94.68 K, Crystal | 53.91
97.15 K, Crystal | 54.9
98.26 K, Crystal | 55.24
99.58 K, Crystal | 55.88
101.41 K, Crystal | 56.44
104.32 K, Crystal | 57.81
107.19 K, Crystal | 59.01
110.07 K, Crystal | 60.14
112.95 K, Crystal | 61.2
115.84 K, Crystal | 62.28
118.73 K, Crystal | 63.39
121.63 K, Crystal | 64.43
124.53 K, Crystal | 65.69
127.43 K, Crystal | 66.87
130.34 K, Crystal | 68.07
133.25 K, Crystal | 69.29
136.16 K, Crystal | 70.53
139.06 K, Crystal | 71.9
141.97 K, Crystal | 73.6
144.84 K, Crystal | 79.58
153 K, Liquid | 106.26
155.75 K, Liquid | 106.33
158.49 K, Liquid | 106.55
161.22 K, Liquid | 106.79
163.93 K, Liquid | 107.01
166.64 K, Liquid | 107.32
169.34 K, Liquid | 107.61
172.03 K, Liquid | 107.88
174.71 K, Liquid | 108.22
177.37 K, Liquid | 108.49
180.03 K, Liquid | 108.81
182.68 K, Liquid | 109.05
185.32 K, Liquid | 109.37
187.95 K, Liquid | 109.64
190.57 K, Liquid | 109.94
193.19 K, Liquid | 110.41
195.79 K, Liquid | 110.64
198.38 K, Liquid | 110.93
200.97 K, Liquid | 111.4
203.35 K, Liquid | 111.76
205.56 K, Liquid | 112.13
208.15 K, Liquid | 112.54
211.11 K, Liquid | 113.05
214.08 K, Liquid | 113.58
217.04 K, Liquid | 114.16
219.99 K, Liquid | 114.78
222.92 K, Liquid | 115.39
225.84 K, Liquid | 116.05
228.74 K, Liquid | 116.74
231.64 K, Liquid | 117.43
234.52 K, Liquid | 118.2
237.38 K, Liquid | 118.92
240.23 K, Liquid | 119.7
243.07 K, Liquid | 120.56
245.89 K, Liquid | 121.39
248.7 K, Liquid | 122.27
251.5 K, Liquid | 123.2
254.28 K, Liquid | 123.87
257.05 K, Liquid | 124.8
259.81 K, Liquid | 125.83
262.55 K, Liquid | 126.88
265.28 K, Liquid | 127.98
267.99 K, Liquid | 129.08
270.68 K, Liquid | 130.22
273.36 K, Liquid | 131.39
276.02 K, Liquid | 132.62
278.67 K, Liquid | 133.86
281.3 K, Liquid | 135.13
283.91 K, Liquid | 136.42
286.51 K, Liquid | 137.76
289.09 K, Liquid | 139.17
291.66 K, Liquid | 140.59
294.2 K, Liquid | 141.98
296.74 K, Liquid | 143.51
299.25 K, Liquid | 144.96
301.34 K, Liquid | 146.08
303.15 K, Liquid | 147.29
305.04 K, Liquid | 148.45
306.99 K, Liquid | 149.78
308.94 K, Liquid | 151.07
310.9 K, Liquid | 152.24
312.85 K, Liquid | 153.55
314.81 K, Liquid | 155.12
316.76 K, Liquid | 156.37
318.71 K, Liquid | 157.72
320.67 K, Liquid | 159.16
322.62 K, Liquid | 160.63
324.58 K, Liquid | 162.08
326.53 K, Liquid | 163.47
328.49 K, Liquid | 165.03
330.44 K, Liquid | 166.52
332.4 K, Liquid | 168.01
334.35 K, Liquid | 169.52
336.31 K, Liquid | 171.04
338.26 K, Liquid | 172.66
340.22 K, Liquid | 174.2
342.17 K, Liquid | 175.61
344.13 K, Liquid | 177.2
346.1 K, Liquid | 178.27
348.07 K, Liquid | 180.29
350.04 K, Liquid | 181.83
